ChEMBL document CHEMBL1144546, “Design and synthesis of rho kinase inhibitors (III)” (Bioorg Med Chem, 2007)

How the values were obtained:
[1] = biological target: T1, Rho-associated protein kinase (Homo sapiens, UniProt O75116+Q13464)
[2] = biological target: Rho-associated protein kinase 2 (Rattus norvegicus) (UniProt Q62868); assay: Ex vivo inhibition of Rho kinase activity in Sprague-Dawley rat serum at 30 mg/kg, po after 1 hrs; type: organism-based; design: dose 30 mg/kg; scale not given: the % may be the effect or the level left
[3] = biological target: Rho-associated protein kinase 2 (Rattus norvegicus) (UniProt Q62868); assay: Ex vivo inhibition of Rho kinase activity in Sprague-Dawley rat serum at 30 mg/kg, po after 8 hrs; type: organism-based; design: dose 30 mg/kg; scale not given: the % may be the effect or the level left
[4] = biological target: Rho-associated protein kinase 2 (Rattus norvegicus) (UniProt Q62868); assay: Ex vivo inhibition of Rho kinase activity in Sprague-Dawley rat serum at 30 mg/kg, po after 4 hrs; type: organism-based; design: dose 30 mg/kg; scale not given: the % may be the effect or the level left
[5] = biological target: T1, Rho-associated protein kinase; assay: Inhibition of TPA-induced Rho kinase dependent MBS phosphorylation in MDCK 2 cells; type: functional, cell-based; details: Canis lupus familiaris
[6] = Metabolic stability in rat liver microsome at 10 uM after 30 mins; details: liver microsomes
[7] = Inhibition of MCP1-induced chemotaxis in U937 cells overexpressing CCR2; details: u-937

Chain of Rho-associated protein kinase 2 (Rattus norvegicus) (Q62868 whole entry, looked up): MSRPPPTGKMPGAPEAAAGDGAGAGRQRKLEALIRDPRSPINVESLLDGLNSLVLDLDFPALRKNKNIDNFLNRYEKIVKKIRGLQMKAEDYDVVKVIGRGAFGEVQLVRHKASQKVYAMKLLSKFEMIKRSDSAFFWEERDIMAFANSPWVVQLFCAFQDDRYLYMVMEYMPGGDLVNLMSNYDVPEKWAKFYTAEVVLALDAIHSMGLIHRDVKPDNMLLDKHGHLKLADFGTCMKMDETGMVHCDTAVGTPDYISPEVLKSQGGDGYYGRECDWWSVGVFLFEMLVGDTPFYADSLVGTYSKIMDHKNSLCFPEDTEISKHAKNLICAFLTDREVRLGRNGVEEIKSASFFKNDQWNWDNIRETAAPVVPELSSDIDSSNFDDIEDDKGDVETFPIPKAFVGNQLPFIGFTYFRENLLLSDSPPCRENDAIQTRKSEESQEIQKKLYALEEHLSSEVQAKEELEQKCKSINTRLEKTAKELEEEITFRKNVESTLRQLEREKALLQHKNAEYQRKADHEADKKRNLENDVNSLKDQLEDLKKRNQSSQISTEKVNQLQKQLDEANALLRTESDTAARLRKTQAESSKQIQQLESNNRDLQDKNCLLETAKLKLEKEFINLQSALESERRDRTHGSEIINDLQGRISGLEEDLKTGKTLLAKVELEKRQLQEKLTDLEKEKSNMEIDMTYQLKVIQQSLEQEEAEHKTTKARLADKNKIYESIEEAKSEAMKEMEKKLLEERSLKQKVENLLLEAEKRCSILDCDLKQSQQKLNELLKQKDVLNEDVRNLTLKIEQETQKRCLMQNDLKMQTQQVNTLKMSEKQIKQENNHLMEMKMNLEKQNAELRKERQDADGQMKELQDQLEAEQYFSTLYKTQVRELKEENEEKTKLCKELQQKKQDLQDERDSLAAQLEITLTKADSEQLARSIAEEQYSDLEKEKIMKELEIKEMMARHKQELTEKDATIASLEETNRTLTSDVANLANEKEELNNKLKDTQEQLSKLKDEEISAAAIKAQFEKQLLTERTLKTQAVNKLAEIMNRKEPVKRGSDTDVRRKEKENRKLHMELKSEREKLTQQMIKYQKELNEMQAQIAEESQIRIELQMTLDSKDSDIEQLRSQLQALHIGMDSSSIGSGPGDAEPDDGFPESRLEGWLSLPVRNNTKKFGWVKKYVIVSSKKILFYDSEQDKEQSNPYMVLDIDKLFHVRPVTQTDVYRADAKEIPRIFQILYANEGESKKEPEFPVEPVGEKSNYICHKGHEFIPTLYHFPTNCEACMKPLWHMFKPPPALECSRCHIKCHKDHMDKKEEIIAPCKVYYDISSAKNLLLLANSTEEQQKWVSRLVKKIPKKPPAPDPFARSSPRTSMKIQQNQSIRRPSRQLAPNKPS
T1 sequence (O75116 whole entry, looked up): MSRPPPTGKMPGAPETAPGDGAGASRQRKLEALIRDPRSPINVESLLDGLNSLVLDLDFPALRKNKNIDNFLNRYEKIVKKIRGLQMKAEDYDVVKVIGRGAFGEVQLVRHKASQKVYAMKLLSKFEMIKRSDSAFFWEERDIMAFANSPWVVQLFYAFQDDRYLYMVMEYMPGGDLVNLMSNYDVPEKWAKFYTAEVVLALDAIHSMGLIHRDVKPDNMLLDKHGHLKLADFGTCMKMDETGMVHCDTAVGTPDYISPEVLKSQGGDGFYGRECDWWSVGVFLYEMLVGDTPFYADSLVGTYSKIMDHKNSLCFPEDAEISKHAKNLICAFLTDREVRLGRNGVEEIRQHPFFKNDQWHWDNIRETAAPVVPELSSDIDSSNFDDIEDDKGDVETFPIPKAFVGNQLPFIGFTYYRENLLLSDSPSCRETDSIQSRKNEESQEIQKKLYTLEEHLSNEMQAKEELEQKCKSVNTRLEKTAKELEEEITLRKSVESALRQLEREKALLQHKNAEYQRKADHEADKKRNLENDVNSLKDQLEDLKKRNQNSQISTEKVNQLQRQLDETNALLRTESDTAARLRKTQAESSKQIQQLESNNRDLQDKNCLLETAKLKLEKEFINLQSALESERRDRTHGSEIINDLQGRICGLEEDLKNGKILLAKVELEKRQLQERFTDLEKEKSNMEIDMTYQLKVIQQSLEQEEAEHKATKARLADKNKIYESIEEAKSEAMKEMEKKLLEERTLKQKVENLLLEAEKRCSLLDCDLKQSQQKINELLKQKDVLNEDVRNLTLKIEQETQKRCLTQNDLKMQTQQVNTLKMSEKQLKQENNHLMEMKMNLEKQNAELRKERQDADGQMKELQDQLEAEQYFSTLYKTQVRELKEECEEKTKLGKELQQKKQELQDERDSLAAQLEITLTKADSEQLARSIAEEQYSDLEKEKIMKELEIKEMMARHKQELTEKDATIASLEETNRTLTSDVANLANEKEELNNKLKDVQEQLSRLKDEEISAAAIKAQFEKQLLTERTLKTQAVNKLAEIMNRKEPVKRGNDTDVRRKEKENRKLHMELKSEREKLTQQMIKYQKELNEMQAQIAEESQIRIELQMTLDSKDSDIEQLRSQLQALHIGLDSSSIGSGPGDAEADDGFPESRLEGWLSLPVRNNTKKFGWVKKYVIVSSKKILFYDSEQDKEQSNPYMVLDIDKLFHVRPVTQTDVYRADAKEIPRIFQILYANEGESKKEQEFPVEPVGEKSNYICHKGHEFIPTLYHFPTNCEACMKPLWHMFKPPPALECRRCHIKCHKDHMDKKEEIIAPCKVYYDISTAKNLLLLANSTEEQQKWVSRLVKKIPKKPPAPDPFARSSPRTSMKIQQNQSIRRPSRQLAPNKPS
T1 sequence (Q13464 whole entry, looked up): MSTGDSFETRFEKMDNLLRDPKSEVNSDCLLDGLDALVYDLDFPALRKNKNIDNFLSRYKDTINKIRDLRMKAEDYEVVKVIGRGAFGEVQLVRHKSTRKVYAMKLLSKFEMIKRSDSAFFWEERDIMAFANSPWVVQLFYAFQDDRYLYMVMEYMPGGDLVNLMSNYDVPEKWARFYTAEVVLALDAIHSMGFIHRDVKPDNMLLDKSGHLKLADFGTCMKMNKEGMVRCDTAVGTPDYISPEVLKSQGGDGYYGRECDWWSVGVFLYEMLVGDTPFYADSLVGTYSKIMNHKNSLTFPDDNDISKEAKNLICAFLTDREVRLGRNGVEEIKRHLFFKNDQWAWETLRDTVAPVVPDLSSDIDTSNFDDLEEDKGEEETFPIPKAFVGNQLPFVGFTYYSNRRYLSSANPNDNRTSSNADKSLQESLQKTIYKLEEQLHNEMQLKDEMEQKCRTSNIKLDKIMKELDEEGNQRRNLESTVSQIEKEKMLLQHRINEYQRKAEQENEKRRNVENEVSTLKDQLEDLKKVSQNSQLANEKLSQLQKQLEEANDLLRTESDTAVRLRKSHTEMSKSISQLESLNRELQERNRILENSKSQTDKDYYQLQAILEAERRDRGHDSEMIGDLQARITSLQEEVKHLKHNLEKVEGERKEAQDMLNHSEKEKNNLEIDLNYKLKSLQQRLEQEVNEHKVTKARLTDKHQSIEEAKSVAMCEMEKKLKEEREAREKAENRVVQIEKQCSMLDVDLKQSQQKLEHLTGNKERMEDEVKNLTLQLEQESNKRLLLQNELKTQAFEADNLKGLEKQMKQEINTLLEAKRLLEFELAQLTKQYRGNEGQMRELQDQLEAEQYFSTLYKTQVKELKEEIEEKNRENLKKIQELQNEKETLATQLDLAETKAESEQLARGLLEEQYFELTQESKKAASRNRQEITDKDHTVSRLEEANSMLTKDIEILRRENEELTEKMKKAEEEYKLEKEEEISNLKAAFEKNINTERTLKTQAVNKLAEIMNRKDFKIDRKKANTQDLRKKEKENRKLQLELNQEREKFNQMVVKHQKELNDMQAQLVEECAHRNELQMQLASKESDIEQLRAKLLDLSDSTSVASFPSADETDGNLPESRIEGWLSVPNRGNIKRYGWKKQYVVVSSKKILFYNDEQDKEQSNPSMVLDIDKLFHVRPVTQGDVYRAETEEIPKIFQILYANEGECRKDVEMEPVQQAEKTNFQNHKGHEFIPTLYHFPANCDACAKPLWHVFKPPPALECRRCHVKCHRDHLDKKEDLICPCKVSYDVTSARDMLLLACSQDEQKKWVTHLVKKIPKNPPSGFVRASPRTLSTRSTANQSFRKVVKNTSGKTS

Structure (SMILES)	IC50 [1] [nM]	other results
c1cc(N[C@H]2CC[C@H](NC3CC3)CC2)c2ccncc2c1	70	–
Clc1ccccc1CN1CCCC(Nc2cccc3cnccc23)C1 (stereo unspecified)	210	–
CC(C)CCN1CCCC(Nc2cccc3cnccc23)C1 (stereo unspecified)	270	–
CC(C)CN1CCC(Nc2cccc3cnccc23)CC1	210	–
Clc1cccc(CN2CCCC(Nc3cccc4cnccc34)C2)c1 (stereo unspecified)	265	–
c1cc(N[C@H]2CC[C@@H](NC3CC3)CC2)c2ccncc2c1	195	–
Nc1cccc(CN2CCC(Nc3cccc4cnccc34)C2)c1 (stereo unspecified)	275	remaining at 0.5 h, 10 µM [6]: 67%
Clc1ccc(CN2CCC(Nc3cccc4cnccc34)C2)cc1 (stereo unspecified)	65	–
O=S(=O)(c1cccc2cnccc12)N1CCCNCC1 [FASUDIL]	–	IC50 [7]: 35000 nM
c1ccc(CN2CCC(Nc3cccc4cnccc34)CC2)cc1	140	–
c1ccc(CCN[C@H]2CC[C@@H](Nc3cccc4cnccc34)CC2)cc1	580	–
Fc1cccc(F)c1CN1CCC(Nc2cccc3cnccc23)C1 (stereo unspecified)	75	–
Fc1ccc(CN2CCC(Nc3cccc4cnccc34)C2)cc1 (stereo unspecified)	95	–
CCCN[C@H]1CC[C@@H](Nc2cccc3cnccc23)CC1	180	–
CCCN[C@H]1CC[C@H](Nc2cccc3cnccc23)CC1	180	–
Nc1ccccc1CN1CCC(Nc2cccc3cnccc23)C1 (stereo unspecified)	205	–

Second part, led by results:

IC50 [1] [nM]	Structure (SMILES)	other results
235	Nc1ccc(CN2CCC(Nc3cccc4cnccc34)C2)cc1 (stereo unspecified)	–
65	Clc1cccc(CN2CCC(Nc3cccc4cnccc34)C2)c1 (stereo unspecified)	–
25	Nc1cccc(CN2CC[C@@H](Nc3cccc4cnccc34)C2)c1	Activity [2]: 52%; Activity [3]: 26%; Activity [4]: 42%; Activity [5]: Dose-dependent effect
345	CCCN1CCC(Nc2cccc3cnccc23)CC1	–
100	Clc1ccccc1CN1CCC(Nc2cccc3cnccc23)C1 (stereo unspecified)	–
310	Nc1cccc(CN2CC[C@H](Nc3cccc4cnccc34)C2)c1	Activity [2]: 30%; Activity [3]: 0%; Activity [4]: 17%
440	c1ccc(CCN[C@H]2CC[C@H](Nc3cccc4cnccc34)CC2)cc1	–
